Measured values reported in patent US20100037351A1, “Alteration of Phospholipase De (PLDe) or Phospholipase Da3 (PLD a3) Expression in Plants” (DONALD DANFORTH PLANT SCIENCE CENTER, priority 2008, published 2010).

Legend:
[1] = test system: Arabidopsis seedlings; settings: for effect on number and length of lateral roots: MS with 6 mM N containing 0.15% butanol, OE, WT and KO seedlings, measured 6 days after transfer
Description: (A) Four-day-old seedlings were transferred to Murashige and Skoog (MS) containing 6 mM N for 12 days. […] Root length and number were measured 6 days after transfer. Values are means±SD (n=30).
To test N response on plates, surface-sterilized seeds were germinated in MS (1×) agar plates supplement with 3% sucrose for 4 days and then were transferred to modified MS agar plates containing 0.1, 0.6, 2, 6, 60 mM N, NO3^−:NH4^−=2:1). […] Seedlings were grown on plates in a vertical orientation in a growth chamber under the conditions of 16-h light/8-h dark, 23/21° C., cool fluorescent white light (200 mmol m^−2 s^−1). Alternatively, seeds were also directly germinated in agar plates with the same conditions as described above.

[2] = test system: S6K; experiment: S6K binding to lipids immobilized on a nitrocellulose filter; set-up: species or system Arabidopsis; settings: 10 mg lipid spotted; leaf proteins 1.2 mg/ml; anti-human p70 S6K antibody
Description: FIG. 5 depicts S6K levels under different N levels. (A) and (B) S6K protein levels detected by immunoblotting with anti-p70 S6K and anti-phospho-p70 S6K (Thr389) antibodies, respectively. Four-day-old seedlings were transferred to MS plates with the indicated N levels for 10 days. The same amount of proteins ([…]/lane) was separated by 10% SDS-PAGE and transferred to a nitrocellulose membrane. (C) S6K binding to PA immobilized on filter. Lipid (10 mg) was spotted on nitrocellulose filter, and incubated with leaf proteins (1.2 mg/ml), followed by blotting with anti-human p70 S6K antibody. (D) S6K binding to liposomes composed of PA (PA:PC=1:2), PC, or PI only (650 nmol of total lipids). (E) Total S6K, but not phosphorylated S6K binding to PA:PC liposomes. Proteins were extracted from WT and PLDε-altered seedlings. Bound proteins were separated by SDS-PAGE and detected by blotting with anti-human p70 S6K antibody or anti-human p389 p70 S6K antibody.
PLDε: PA-Protein Binding by Blotting and Liposomal Assays. S6K binding to lipids immobilized on a nitrocellulose filter was performed as described (Zhang, W., Qin, C., Zhao, J. & Wang, X. (2004) Proc. Natl. Acad. Sci. USA. 101, 9508-9513; Stevenson, J. M., Perera, I. Y. & Boss, W. F. (1998) J Biol Chem. 273, 22761-22767) with minor modifications. […] Protein binding to liposome was detected by immunoblotting as described above.

Compound	effect on number and length of lateral roots [1]	S6K binding to lipid immobilized on filter [2]	effect on biomass accumulation ([1]; 1-butanol treatment, data not shown)
CCC(C)O (stereo not shown) [2-butanol]	no growth inhibitory effect	–	–
phosphatidic acid [PA]	–	bound	–
CCCCO [1-Butanol, 1-butanol]	inhibited	–	inhibited
